From patent US20130310379A1, “MODULATORS OF METHYL MODIFYING ENZYMES, COMPOSITIONS AND USES THEREOF” (CONSTELLATION PHARMACEUTICALS, priority 2010, published 2013)

Target: EZH2 (Homo sapiens, UniProt Q15910)
Experiment: EZH2 assay: rPRC2 with biotinylated oligonucleosome substrates and 3H SAM, FlashPlate scintillation counting, IC50
Assay type: biochemical
Conditions: not given
Procedure: Assays were carried out by mixing rPRC2 together with biotinylated oligonucleosome substrates in the presence of the radio-labeled enzyme co-factor, S-adenosyl-L-methionine (^3H SAM) (Perkin Elmer) and monitoring the enzymatically mediated transfer of tritiated methyl groups from ^3H SAM to histone lysine residues. The amount of resulting tritated methylhistone product was measured by first capturing the biotinylated oligonuclesomes in streptavidin (SAV) coated FlashPlates (Perkin Elmer), followed by a wash step to remove un-reacted ^3H SAM, and then counting on a TopCount NXT 384 well plate scintillation counter (Perkin Elmer). The final assay conditions for EZH2 were as follows: 50 mM Tris Buffer pH 8.5, 1 mM DTT, 69 uM Brij-35 detergent, 5.0 mM MgCl2, 0.1 mg/mL BSA, 0.2 uM ^3H SAM, 0.2 uM biotinylated oligonucleosomes, 3.6 uM H3K27me3 peptide and 2 nM EZH2.
Compound IC50 measurements were obtained as follows: Compounds were first dissolved in 100% DMSO as 10 mM stock solutions. […] A 12.5 uL volume of the HMT enzyme, H3K27me3 peptide and oligonucleosome substrate in assay buffer was added to each well of the assay plate using a Multidrop Combi (ThermoFisher). Compounds were pre-incubated with the enzyme for 20 min, followed by initiation of the methyltransferase reaction by addition of 12.5 uL of 3H SAM in assay buffer (final volume=25 uL). The final concentrations of compounds ranged from a top default concentration of 80 uM down to 0.16 uM in ten 2-fold dilution steps. Reactions were carried out for 60 minutes and quenched with 20 uL per well of 1.96 mM SAH, 50 mM Tris PH 8.5, 200 mM EDTA. Stopped reactions were transferred to SAV coated Flashplates (Perkin Elmer), incubated for 120 min, washed with a plate washer, and then read on the TopCount NXT (1.0 min/well) to measure the amount of methylhistone product formed during the reaction. The amount of methylhistone product was compared with the amount of product formed in the 0% and 100% inhibition control wells allowing the calculation of % Inhibition in the presence of the individual compounds at various concentrations. IC50's were computed using a 4 parameter fit non-linear curve fitting software package (XLFIT, part of the database package, ActivityBase (IDBS)) where the four parameters were IC50, Hill slope, pre-transitional baseline (0% INH), and post-transitional baseline (100% INH); with the latter two parameters being fixed to zero and 100%, respectively, by default.

EZH2, sequence (Q15910 whole entry): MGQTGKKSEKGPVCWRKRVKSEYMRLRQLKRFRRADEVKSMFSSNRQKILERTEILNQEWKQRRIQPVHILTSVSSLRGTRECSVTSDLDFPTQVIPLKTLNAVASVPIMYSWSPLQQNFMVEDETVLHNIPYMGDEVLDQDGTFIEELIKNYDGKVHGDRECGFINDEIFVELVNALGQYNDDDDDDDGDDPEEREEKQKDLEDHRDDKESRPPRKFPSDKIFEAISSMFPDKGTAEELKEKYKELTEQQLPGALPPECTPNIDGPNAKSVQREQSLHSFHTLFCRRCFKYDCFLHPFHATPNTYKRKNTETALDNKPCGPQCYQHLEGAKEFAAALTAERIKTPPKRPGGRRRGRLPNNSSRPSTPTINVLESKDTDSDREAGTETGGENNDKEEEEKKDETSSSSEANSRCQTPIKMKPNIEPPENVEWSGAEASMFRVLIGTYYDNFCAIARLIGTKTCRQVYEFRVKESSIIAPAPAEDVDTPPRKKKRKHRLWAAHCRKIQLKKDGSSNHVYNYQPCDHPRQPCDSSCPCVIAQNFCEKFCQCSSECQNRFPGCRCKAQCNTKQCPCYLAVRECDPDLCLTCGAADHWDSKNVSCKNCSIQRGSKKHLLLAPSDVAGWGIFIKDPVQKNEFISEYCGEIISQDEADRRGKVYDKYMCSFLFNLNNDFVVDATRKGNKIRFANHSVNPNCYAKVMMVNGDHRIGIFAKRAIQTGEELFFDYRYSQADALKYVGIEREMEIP
EZH2, sequence (O75530 whole entry partner): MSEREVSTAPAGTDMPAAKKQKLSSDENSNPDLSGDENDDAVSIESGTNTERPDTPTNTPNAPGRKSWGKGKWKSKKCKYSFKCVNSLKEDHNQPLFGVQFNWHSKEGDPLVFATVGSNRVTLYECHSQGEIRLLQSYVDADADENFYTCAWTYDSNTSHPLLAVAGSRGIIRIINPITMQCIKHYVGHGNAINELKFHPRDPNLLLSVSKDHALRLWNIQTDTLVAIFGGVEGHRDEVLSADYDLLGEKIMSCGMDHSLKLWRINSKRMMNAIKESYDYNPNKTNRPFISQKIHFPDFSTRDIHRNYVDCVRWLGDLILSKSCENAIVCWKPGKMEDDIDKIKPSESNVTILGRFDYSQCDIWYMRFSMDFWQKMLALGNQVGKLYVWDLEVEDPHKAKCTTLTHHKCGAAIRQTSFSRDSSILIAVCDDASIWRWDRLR
EZH2, sequence (Q15022 whole entry partner): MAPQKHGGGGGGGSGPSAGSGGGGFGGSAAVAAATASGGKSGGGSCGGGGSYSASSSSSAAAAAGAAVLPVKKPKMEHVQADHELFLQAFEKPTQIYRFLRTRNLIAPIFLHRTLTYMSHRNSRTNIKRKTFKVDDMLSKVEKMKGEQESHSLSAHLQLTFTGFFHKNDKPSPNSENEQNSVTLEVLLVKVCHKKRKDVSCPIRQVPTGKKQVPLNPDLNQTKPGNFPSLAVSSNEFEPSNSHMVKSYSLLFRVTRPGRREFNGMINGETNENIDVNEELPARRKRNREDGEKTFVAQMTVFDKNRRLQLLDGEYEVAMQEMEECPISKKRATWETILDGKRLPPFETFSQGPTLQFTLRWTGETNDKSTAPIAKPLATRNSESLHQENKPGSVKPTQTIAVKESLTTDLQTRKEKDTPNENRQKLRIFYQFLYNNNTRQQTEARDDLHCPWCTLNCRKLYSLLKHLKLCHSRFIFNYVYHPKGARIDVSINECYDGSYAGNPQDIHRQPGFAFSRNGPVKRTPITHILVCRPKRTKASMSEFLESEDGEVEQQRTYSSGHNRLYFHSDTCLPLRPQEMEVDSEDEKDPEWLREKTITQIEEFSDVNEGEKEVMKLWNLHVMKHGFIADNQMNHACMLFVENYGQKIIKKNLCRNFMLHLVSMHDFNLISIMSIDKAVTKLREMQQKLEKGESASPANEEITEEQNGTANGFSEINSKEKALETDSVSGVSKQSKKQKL

Row | Structure (SMILES) | IC50
1 | CC1(C)CC(NC(=O)c2ccc(Oc3ccccc3C#N)c(Cl)c2)CC(C)(C)N1[O] [Compound I-402] | > 80 µM

Same assay, conditions: rPRC2, biotinylated oligonucleosome substrates, 3H SAM; read-out: EZH2 IC50

Row | Structure (SMILES) | IC50
2 | Cc1cc(C(=O)NC2CC(C)(C)NC(C)(C)C2)cc(C)c1Oc1ccccc1C#N [Compound I-335] | 20 to 80 µM
3 | CC1(C)CC(NC(=O)c2ccc(Oc3ccccc3OCc3ccccn3)cc2)CC(C)(C)N1 [Compound I-231] | 5 to 20 µM
4 | CC1(C)CC(NC(=O)c2ccc(Oc3cccc4c(=O)[nH]ccc34)cc2)CC(C)(C)N1 [Compound I-317] | > 80 µM
5 | CC1(C)CC(NC(=O)c2cccc(COc3cccc(Br)c3)c2)CC(C)(C)N1 [Compound I-130] | > 80 µM
6 | CC1(C)CC(NC(=O)c2ccc(Oc3ccncc3C#N)c(Cl)c2)CC(C)(C)N1 [Compound I-349] | 5 to 20 µM
7 | CC1(C)CC(NC(=O)N2CCC(Oc3ccccc3)C2)CC(C)(C)N1 (stereo not shown) [Compound I-466] | > 80 µM
8 | COc1ccc(-c2cccc(OCc3ccc(C(=O)NC4CC(C)(C)NC(C)(C)C4)cc3)c2)cn1 [Compound I-41] | 20 to 80 µM
9 | CC1(C)CC(NC(=O)c2ccc(Oc3ccccc3C#N)c(Cl)c2)CC(C(=O)O)N1 (stereo not shown) [Compound I-419] | > 80 µM
10 | CC1(C)CC(NC(=O)c2ccc(Oc3cccc(CN4CCCCC4)c3C#N)cc2)CC(C)(C)N1 [Compound I-283] | 5 to 20 µM
11 | CC1(C)CC(NC(=O)c2ccc3c(c2)Cc2ccccc2O3)CC(C)(C)N1 [Compound I-412] | > 80 µM
12 | CC1(C)CC(NC(=O)c2ccc(Nc3ccccc3)cc2)CC(C)(C)N1 [Compound I-107] | > 80 µM
13 | CC1(C)CC(NC(=O)c2ccc(Oc3ccccc3C#N)c(N3CCOCC3)c2)CC(C)(C)N1 [Compound I-196] | < 5 µM
14 | Cc1ccccc1OCc1ccc(C(=O)NC2CC(C)(C)NC(C)(C)C2)cc1 [Compound I-74] | > 80 µM
15 | CC1(C)CC(NC(=O)c2ccc(Oc3ccccc3)c(Br)c2)CC(C)(C)N1 [Compound I-144] | 5 to 20 µM
16 | COc1ncccc1-c1ccccc1Oc1ccc(C(=O)NC2CC(C)(C)NC(C)(C)C2)cc1Cl [Compound I-321] | > 80 µM
17 | CC1(C)CC(NC(=O)c2ccc(Oc3cccc(-c4ccc(C#N)nc4)c3C#N)c(Cl)c2)CC(C)(C)N1 [Compound I-526] | < 5 µM
18 | Cc1ccncc1-c1ccccc1Oc1ccc(C(=O)NC2CC(C)(C)NC(C)(C)C2)cc1Cl [Compound I-297] | 5 to 20 µM
19 | O=C(NCc1ccccc1)c1ccc(Oc2ccccc2)cc1 [Compound I-141] | > 80 µM
20 | Cc1ccc(Oc2ccc(C(=O)NC3CC(C)(C)NC(C)(C)C3)cc2)cc1 [Compound I-92] | > 80 µM
21 | O=C(N[C@H]1CCN(Cc2ccccc2)C1)c1ccc(Oc2ccccc2)cc1 (stereo in doubt) [Compound I-101] | > 80 µM
22 | CN(C)Cc1cccc(Oc2ccc(C(=O)NC3CC(C)(C)NC(C)(C)C3)cc2)c1 [Compound I-247] | 20 to 80 µM
23 | CC1(C)CC(NC(=O)c2ccc(Oc3cccc(-c4ccnnc4)c3C#N)c(Cl)c2)CC(c2ccccc2)N1 (stereo not shown) [Compound I-477] | < 5 µM
24 | CC1(C)CC(NC(=O)c2ccc(Oc3ccccc3C#N)c(Cl)c2)CC(C)(C)N1CC(N)=O [Compound I-452] | > 80 µM
25 | CC1(C)CC(NC(=O)c2ccc(Oc3cccc(CCC(=O)N4CCCC4)c3C#N)c(Cl)c2)CC(C)(C)N1 [Compound I-553] | < 5 µM
26 | CC1(C)CC(NC(=O)c2ccc(COc3ccnc(Cl)c3)cc2)CC(C)(C)N1 [Compound I-66] | 20 to 80 µM
27 | CC1(C)CC(NC(=O)c2ccc(Cc3ccccc3)cc2)CC(C)(C)N1 [Compound I-127, 4-Benzyl-N-(2,2,6,6-tetramethylpiperidin-4-yl)benzamide] | > 80 µM
28 | CC1(C)CC(NC(=O)c2ccc(Oc3ccccc3OCc3ccccc3)cc2)CC(C)(C)N1 [Compound I-152] | < 5 µM

Row | Structure (SMILES) | IC50
29 | N#Cc1ccccc1Oc1ccc(C(=O)NC2CCN(c3cccnc3)CC2)cc1Cl [Compound I-368] | > 80 µM
30 | CC1(C)CC(NC(=O)c2ccc(CNc3ccccc3)cc2)CC(C)(C)N1 [Compound I-106, 4-((Phenylamino)methyl)-N-(2,2,6,6-tetramethylpiperidin-4-yl)benzamide] | > 80 µM
31 | Cc1cc(C)cc(OCc2cccc(C(=O)NC3CC(C)(C)NC(C)(C)C3)c2)c1 [Compound I-115] | > 80 µM
32 | CC1(C)CC(NC(=O)c2ccc(Oc3ccccn3)cc2)CC(C)(C)N1 [Compound I-56] | 20 to 80 µM
33 | CC1(C)CC(NC(=O)c2ccc(Oc3ccc(Br)cc3)cc2)CC(C)(C)N1 [Compound I-93] | > 80 µM
34 | CN(C(=O)c1ccc(COc2cccc(Br)c2)cc1)C1CCNCC1 [Compound I-126] | > 80 µM
35 | CC1(C)CC(NC(=O)c2ccc(Oc3ccccc3)cc2Cl)CC(C)(C)N1 [Compound I-175] | > 80 µM
36 | N#Cc1ccccc1Oc1ccc(C(=O)N[C@@H]2C[C@H]3CC[C@@H](C2)N3)cc1Cl [Compound I-380] | 20 to 80 µM
37 | CC1(C)CC(NC(=O)c2ccc(COc3cccc(-c4ccc(O)cc4)c3)cc2)CC(C)(C)N1 [Compound I-38] | 20 to 80 µM
38 | CC1(C)CC(NC(=O)c2ccc(Oc3ccccc3CO)cc2)CC(C)(C)N1 [Compound I-179] | 20 to 80 µM
39 | CN1CCN(C(=O)CCc2cccc(Oc3ccc(C(=O)NC4CC(C)(C)NC(C)(C)C4)cc3Cl)c2C#N)CC1 [Compound I-555] | < 5 µM
40 | CC1(C)CC(NC(=O)c2ccc(COc3cccc(N4CCOCC4)c3)cc2)CC(C)(C)N1 [Compound I-164] | > 80 µM
41 | CC1(C)CC(NC(=O)c2ccc(Oc3ccccc3C#N)c(C#N)c2)CC(C)(C)N1 [Compound I-264] | < 5 µM
42 | Cc1ccc(Oc2ccc(C(=O)NC3CC(C)(C)NC(C)(C)C3)cc2)cc1C [Compound I-87] | > 80 µM
43 | CCOC(=O)N1CCC(NC(=O)c2ccc(Oc3ccccc3C#N)c(Cl)c2)CC1 [Compound I-281] | > 80 µM
44 | CC1(C)CC(NC(=O)c2ccc(Oc3ccc(F)cc3)cc2)CC(C)(C)N1 [Compound I-86] | > 80 µM
45 | CN(C)CCCNC(=O)c1ccc(Oc2ccccc2)cc1 [Compound I-140] | > 80 µM
46 | CNC(=O)CC1(NC(=O)c2ccc(Oc3cccc(-c4ccnnc4)c3C#N)c(Cl)c2)CC(C)(C)NC(C)(C)C1 [Compound I-570] | > 80 µM
47 | CC1(C)CC(NCc2ccc(Oc3ccccc3C#N)cc2)CC(C)(C)N1 [Compound I-306] | > 80 µM
48 | CC1(C)CC(NC(=O)c2ccc(Oc3ccccc3C3CCNCC3)c(Cl)c2)CC(C)(C)N1 [Compound I-230] | 5 to 20 µM
49 | CC1(C)CC(NC(=O)c2ccc(Oc3ccccc3C#N)c(Cl)c2)CCN1 (stereo not shown) [Compound I-503] | 5 to 20 µM
50 | Cc1cc(C(=O)NC2CC(C)(C)NC(C)(C)C2)ccc1Oc1cccc(-c2ccnnc2)c1C#N [Compound I-508] | < 5 µM
51 | CC1(C)CC(NC(=O)c2cnc(Oc3cccc(-c4cn[nH]c4)c3C#N)c(Cl)c2)CC(C)(C)N1 [Compound I-435] | < 5 µM
52 | Cc1cccc(C#N)c1Oc1ccc(C(=O)NC2CC(C)(C)NC(C)(C)C2)cc1 [Compound I-176] | 20 to 80 µM
53 | CC1(C)CC(NC(=O)c2ccc(Oc3ccccc3)c(O)c2)CC(C)(C)N1 [Compound I-268] | 20 to 80 µM
54 | CC1(C)CC(NC(=O)c2ccc(Oc3cccc(C4=CCOCC4)c3C#N)c(Cl)c2)CC(C)(C)N1 [Compound I-529] | < 5 µM
55 | CC1(C)CC(NC(=O)c2ccc(Oc3ccccc3)cc2O)CC(C)(C)N1 [Compound I-122] | > 80 µM
